Results reported in US6737382B1, “Insecticidal aminothiazole derivatives” (Nippon Soda Co. Ltd., priority 2002, dated 2004).

Legend:
Tetranychus urticae = assay: Efficacy against Tetranychus urticae (two-spotted spider mites), spray on kidney-bean seedling; details: in vivo
Description: Efficacy Against Tetranychus urticae (Tu; Two-spotted Spider Mites
Fifteen adult females were inoculated on a potted Kidney-bean seedling. On the next day, the chemical solution at different concentration was sprayed on the Kidney-bean seedling by a glass nozzle using an air compressor. After air-dried the Kidney-bean pot was maintained in a room kept at 25° C. and 65%RH.
On three days after treatment, the numbers of dead and alive mites were counted and mortality was calculated by Abbott's formula.
Each test was duplicated. [formula]

Pseudaletia separata = assay: whole plant or invertebrate; format: in vivo; details: Mythimna separata, in Zea mays, foliar, 120 h
Description: Efficacy Against Pseudaletia separata Walker (Ps; Rice Armyworm)
A piece of Maize leaf (ca. 7×1.5 cm) was dipped in the chemical solution at 125 ppm for 30 sec and air-dried. The leaf was placed in a glass petri dish (9 cm diameter) and five second-instar larvae of Pseudaletia separata were introduced into the petri dish. Five days after the treatment, the number of survival larvae was counted and the mortality was calculated by Abbott's formula. Each test was duplicated.

Plutella xylostella = assay: whole plant or invertebrate; format: in vivo; details: in Brassica oleracea, 72 h
Source text: Efficacy Against Plutella xylostella Linne (Px; Diamondback Moth)
The chemical solution at 125 ppm was sprayed on a Cabbage seedling by a glass nozzle using an air compressor. After airdried, a small leaf (ca. 5 cm diameter) was detached from the treated plant and placed in a glass petri dish (ca. 9 cm diameter). Five second-instar larvae of Plutella xylostella were introduced into the petri dish. Three days after the treatment, the number of survival larvae was counted and the mortality was calculated by Abbott's formula. Each test was duplicated.

Compound | melting point | mortality at 125 ppm (Pseudaletia separata) | also measured
O=C(Nc1nc(C(F)(F)F)c(Br)s1)c1ccc(Cl)c(Cl)c1 [Compound 19, N-(5-Bromo-4-trifluoromethylthiazol-2-yl)-3,4-dicloro-benzamide] | – | – | mortality (Tetranychus urticae): 100%
O=C(Nc1nc(C(F)(F)F)c(Br)s1)c1cccs1 [Compound 34, N-(5-Bromo-4-trifluoromethylthiazol-2-yl)thiophene-2-carboxamide] | 184 to 185 °C | – | –
O=C(Nc1nc(C(F)(F)F)c(I)s1)c1c(Cl)cccc1Cl [Compound 44, N-(5-Iodo-4-trifluoromethylthiazol-2-yl)-2,6-dichloro-benzamide] | – | 100% | –
O=C(Nc1nc(C(F)(F)F)c(I)s1)c1ccc(C(F)(F)F)cc1 [Compound 45, N-(5-Iodo-4-trifluoromethylthiazol-2-yl)-4-trifluoromethyl-benzamide] | – | 100% | mortality at 125 ppm (Plutella xylostella): 100%
O=C(Nc1nc(C(F)(F)F)c(Cl)s1)c1ccc(Cl)c([N+](=O)[O-])c1 [Compound 80, N-(5-Chloro-4-trifluoromethylthiazol-2-yl)-4-chloro-3-nitrobenzamide] | 183 to 184 °C | – | –
O=C(Nc1nc(C(F)(F)F)c(-c2ccc(F)cc2)s1)c1ccc(C(F)(F)F)cc1 [Compound 81, N-(5-(4-Fluorophenyl)-4-trifluoromethylthiazol-2-yl)-4-trifluoromethylbenzamide] | – | 100% | –
O=C(Nc1nc(C(F)(F)F)c(I)s1)c1cc(C(F)(F)F)cc(C(F)(F)F)c1 [Compound 102, N-(5-Iodo-4-trifluoromethylthiazol-2-yl)-3,5-bis-trifluoromethylbenzamide] | 172 to 173 °C | – | –
N#CSc1sc(NC(=O)c2cccc(C(F)(F)F)c2)nc1C(F)(F)F [Compound 131, N-(5-thiocyanato-4-trifluoromethylthiazol-2-yl)-3-trifluoromethylbenzamide] | 167 to 168 °C | – | –
